These results are taken from US5677459A, “Methods for the preparation of modulators of acetylcholine receptors” (Sibia Neurosciences, Inc., priority 1995, dated 1997).

Test [1] addresses T1, nicotinic acetylcholine receptor (Rattus norvegicus, UniProt P09483+P12390).
T1 construct: the brains removed and the cerebral cortex dissected on ice; from tissue; host or cells: cerebral cortex synaptic membranes of male Sprague-Dawley rats
Put plainly: ^3 H-Nicotine binding/displacement, rat cerebral membranes. The protocol:
^3 H-Nicotine binding to rat cerebral membranes was performed according to modifications of the method of Flyn and Mash (J. Neurochem. 47:1948 (1986)). ^3 H-Nicotine (80 ci/mmol; New England Nuclear Corporation, Boston, Mass.) was used as the ligand for nicotinic acetylcholine receptor binding assays. All other reagents were purchased from the Sigma Chemical Co. (St. Louis, Mo.).
Male Sprague-Dawley rats (250-400 gm) were sacrificed by decapitation, the brains removed and the cerebral cortex dissected on ice. Synaptic membranes were prepared by homogenizing the cortical tissue in 20 volumes of ice-cold modified Tris buffer (50 mM Tris pH 7.4, 120 mM NaCl, 5 mM KCl, 2 mM EDTA, 1 mM PMSF) with a polytron (20 sec at setting 5-6) followed by centrifugation (15 min at 5,000×g) at 4° C. The resultant pellet was rehomogenized and centrifuged twice. The final pellet was resuspended in ice-cold assay buffer (50 mM Tris pH 7.4, 120 mM NaCl, 5 mM KCl, 2 mM CaCl2, 1 mM MgCl2) at a concentration of membrane equivalent to 1 gm wet weight cortex per 10 ml buffer. After protein determination the final membrane preparation was diluted with buffer to 3 mg protein/mi. This membrane preparation was used in either the fresh state or frozen (-70° C.) then thawed.
The binding assay is performed manually using 96-well plates, or using a Biomek automated work station (Beckman Instrument Co.). ^3 H-Nicotine was diluted in assay buffer to give a final concentration of 1.9 nM. The Biomek automated work station was programmed to automatically transfer 750 μl of assay buffer with ^3 H-nicotine, 230 μl of membrane preparation and 20 μl of solution containing the compound of interest in assay buffer, DMSO, ethanol:DMSO (1:1) or appropriate vehicle to the 96-well plate. Atropine was added to the incubation buffer at a final concentration of 3 μM to block binding to muscarinic acetylcholine receptor sites. The plates were maintained on ice for 60 min and the tissue-bound radioactivity was separated from the free by rapid filtration in a Brandel Harvester onto GF/C filters presoaked in 0.5% polyethyleneimine for at least 2 hr. The filters were washed with 4×2 ml of ice-cold assay buffer and filters were transferred to vials to which 4 ml of scintillation cocktail was added. The radioactivity was measured in a LS-6500 Beckman Liquid Scintillation Counter in an autodpm mode. Data were analyzed bylog-logit transformation or non-linear regression analysis (e.g., employing GraphPad Prism, available from GraphPad Software, San Diego, Calif.) to give IC50 values. Non-specific binding was defined by 10 μM cytisine.

Test [2] deals with ^3 H-Dopamine release, rat striatal slices. Put plainly: Ligand-stimulated ^3 H-dopamine release from rat striatal slices. In kind it is cell-based. As to conditions: in vitro slices, 300 μM.
The subject of test [3] is ^3 H-Norepinephrine release, rat hippocampus slices. Nature of the test: Ligand-stimulated ^3 H-norepinephrine release from rat hippocampus slices. In kind it is cell-based. As to conditions: in vitro slices, 300 μM.
Test [4] relates to ^3 H-Norepinephrine release, rat thalamus slices. Nature of the test: Ligand-stimulated ^3 H-norepinephrine release from rat thalamus slices. In kind it is cell-based. As to conditions: in vitro slices, 300 μM. The protocol:
(§1) Measurement of ^3 H-dopamine release from rat striatal slices was performed according to the method of Sacaan et al. (J. Neurochem. 59:245 (1992)). Male Sprague-Dawley rats (250-300 g) were decapitated and the striata or olfactory tubercles dissected quickly on a cold glass surface. The tissue was chopped to a thickness of 300 μm with a McIlwain tissue chopper. After chopping again at right angles the tissue was dispersed and incubated for 10 min. at 37° C. in oxygenated Kreb's buffer. ^3 H-Dopamine (40 Ci/mmol, NEN- Dupont, Boston, Mass.) was added (50 nM) and the tissue was incubated for 30 min. in Kreb's buffer containing 10 μM pargyline and 0.5 mM ascorbic acid. Aliquots of the minced tissue were then transferred to chambers of a Brandel Superfusion system in which the tissue was supported on Whatman GF/B filter discs. The tissue was then superfused with buffer at a constant flow rate of 0.3 ml/min by means of a Brandel peristaltic pump. The perfusate was collected in plastic scintillation vials in 3-min fractions, and the radioactivity was estimated by scintillation spectrophotometry. The superfusate for the first 120 min was discarded. After two baseline fractions had been collected, the superfusion buffer was switched to fresh buffer with or without compound of interest. At the end of the experiment the filter and the tissue were removed, and the radiolabeled neurotransmitter content was estimated after extraction into scintillation fluid. The fractional efflux of radiolabeled neurotransmitter was estimated as the amount of radioactivity in the perfusate fraction relative to the total amount in the tissue.
(§2) Following essentially the same procedure as set forth above, the amount of ^3 H-norepinephrine released from rat hippocampus, thalamus and prefrontal cortex slices superfused with buffer containing (or lacking) compounds of interest was also measured.
(§3) Results of studies of the effects of an invention compound (as compared to the effect of nicotine) on the release of neurotransmitters from rat brain slices are presented in Table II. Results presented in Part A of the Table are expressed as the percent fractional release and results presented in Part B of the Table are expressed as a percentage, relative to nicotine response.

Test [5] relates to ^3 H-Norepinephrine release, rat prefrontal cortex slices. Nature of the test: Ligand-stimulated ^3 H-norepinephrine release from rat prefrontal cortex slices. In kind it is cell-based. The note with it: in vitro slices, 300 μM. The protocol: as §1, §2, §3
The next test has as its system rats. Nature of the test: Locomotor activity assay. In kind it is in vivo, rat (male Sprague-Dawley). As to conditions: Rattus norvegicus, sc, 20 mg/kg, s.c.
Where [6] appears, read: 1 h, 0-60 min, read-out: Ambulation (cross overs), percent of change from control.
[7] abbreviates: 1 h, 0-60 min, read-out: General Activity (beam breaks), percent of change from control.
[8] abbreviates: 2 h, 60-120 min, read-out: General Activity (beam breaks), percent of change from control.
Where [9] appears, read: ^3 H-nicotine 1.9 nM, rat cerebral membranes, read-out: IC50, Nicotine.
The mark [10] stands for this setting: 2 h, 60-120 min, read-out: Ambulation (cross overs), percent of change from control.

SMILES strings stand for the structures. Like-named read-outs stand apart in the source and are kept apart here.

T1 sequence (P09483 31-630): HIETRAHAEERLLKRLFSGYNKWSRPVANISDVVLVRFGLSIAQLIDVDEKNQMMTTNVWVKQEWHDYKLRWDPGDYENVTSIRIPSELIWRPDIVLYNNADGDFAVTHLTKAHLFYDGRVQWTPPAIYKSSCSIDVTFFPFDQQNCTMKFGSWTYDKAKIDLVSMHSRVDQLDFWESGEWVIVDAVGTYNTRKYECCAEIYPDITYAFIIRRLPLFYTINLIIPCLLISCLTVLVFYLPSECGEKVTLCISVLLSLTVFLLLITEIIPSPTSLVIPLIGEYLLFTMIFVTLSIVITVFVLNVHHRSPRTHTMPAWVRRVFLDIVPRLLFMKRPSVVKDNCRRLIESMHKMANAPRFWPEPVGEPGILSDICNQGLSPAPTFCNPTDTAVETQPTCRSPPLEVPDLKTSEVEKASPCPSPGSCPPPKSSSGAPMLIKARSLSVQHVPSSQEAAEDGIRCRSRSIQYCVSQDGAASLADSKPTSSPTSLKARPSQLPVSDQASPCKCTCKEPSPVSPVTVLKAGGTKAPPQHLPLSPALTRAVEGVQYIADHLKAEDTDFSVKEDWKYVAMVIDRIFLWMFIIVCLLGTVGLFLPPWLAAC
T1 sequence (P12390 25-500): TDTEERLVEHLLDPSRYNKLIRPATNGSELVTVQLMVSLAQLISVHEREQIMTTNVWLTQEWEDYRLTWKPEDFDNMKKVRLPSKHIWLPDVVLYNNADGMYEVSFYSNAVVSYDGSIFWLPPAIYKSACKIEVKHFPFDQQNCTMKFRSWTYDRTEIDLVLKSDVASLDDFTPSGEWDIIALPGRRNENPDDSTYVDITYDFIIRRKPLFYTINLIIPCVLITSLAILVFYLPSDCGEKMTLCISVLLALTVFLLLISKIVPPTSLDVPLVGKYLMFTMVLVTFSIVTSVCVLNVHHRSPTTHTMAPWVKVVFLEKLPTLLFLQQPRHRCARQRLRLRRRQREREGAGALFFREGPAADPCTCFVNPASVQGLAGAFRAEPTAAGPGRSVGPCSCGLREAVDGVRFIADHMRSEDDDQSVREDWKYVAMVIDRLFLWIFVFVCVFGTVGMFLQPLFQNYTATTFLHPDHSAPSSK

Broadly, the IC50 is the midpoint of a concentration-inhibition curve. In test [1] (IC50, Nicotine), `C#Cc1cncc(C2CCCN2C)c1.O=C(O)/C=C/C(=O)O` (racemic) [R^5 = ethynyl (racemic), 5-Ethynyl-3-(1-methyl-2-pyrrolidinyl)pyridine fumarate] returned an IC50 of 4.6 nM. For the same molecule, the “percent fractional release, ^3 H-Dopamine, Striatum” value in test [2] came to 2.56%. In addition, the “percent fractional release, ^3 H-Norepinephrine, Hippocampus” value (from here on “percent fractional release … Hippocampus”) in test [3] is 0.69%. The “percent fractional release, ^3 H-Norepinephrine, Thalamus” value (“percent fractional release … Thalamus” below) in test [4] is 0.31%. Besides, in test [5], the “percent fractional release, ^3 H-Norepinephrine, Prefrontal Cortex” value (“percent fractional release … Prefrontal Cortex” below) was 0.97%. Also, the change in vivo at 20 mg/kg with rats (setting [6]) turned out to be 631%; with rats (setting [7]) it was 509%; in the test on rats (setting [8]), 628%.

Turning to `CN1CCCC1c1cncc(-c2ccc(O)c(Cl)c2)c1.O=C(O)/C=C/C(=O)O` (centres unmarked) [R^5 = 3-chloro-4-hydroxyphenyl, 5-(4-hydroxy-3-chlorophenyl)-3-(1-methyl-2-pyrrolidinyl)pyridine fumarate], the IC50 in test [1] (setting [9]) turned out to be 28 nM. Moreover, the “percent fractional release, ^3 H-Dopamine, Striatum” value in test [2] is recorded as 8.34%. For the same molecule, in test [3], the “percent fractional release … Hippocampus” value is given as 2.5%. Besides, in test [4], the “percent fractional release … Thalamus” value stood at 3.23%. For the same molecule, the “percent fractional release … Prefrontal Cortex” value in test [5] is 2.94%. Moreover, the change in vivo at 20 mg/kg with rats (setting [6]) was 63%; in the test on rats (setting [7]) it was 68%; with rats (setting [10]), -36%; with rats (setting [8]) it was -17%.

`CN1CCCC1c1cncc(-c2cccc(Cl)c2)c1.O=C(O)/C=C/C(=O)O` (centres unmarked) [R^5 = 3-chlorophenyl, 5-(3-Chlorophenyl)-3-(1-methyl-2-pyrrolidinyl) pyridine fumarate]: the IC50 in test [1] (setting [9]) was 120 nM. In test [2], the “percent fractional release, ^3 H-Dopamine, Striatum” value was 2.0%. The “percent fractional release … Hippocampus” value in test [3] is recorded as 1.45%. In addition, the “percent fractional release … Thalamus” value in test [4] amounted to 1.48%. For the same molecule, the “percent fractional release … Prefrontal Cortex” value in test [5] is on record as 1.7%. The change in vivo at 20 mg/kg with rats (setting [6]) came to 48%; in the test with rats (setting [7]) it was 70%; in the test on rats (setting [10]) it was 268%; with rats (setting [8]), 220%.

In the case of `COc1ccc(-c2cncc(C3CCCN3C)c2)cc1F.O=C(O)/C=C/C(=O)O` (centres unmarked) [R^5 = 3-fluoro-4-methoxyphenyl, 5-(3-Fluoro-4-methoxyphenyl)-3-(1-methyl-2-pyrrolidinyl)pyridine fumarate], the IC50 in test [1] (setting [9]) was determined as 27 nM. The “percent fractional release, ^3 H-Dopamine, Striatum” value in test [2] came to 3.1%. Also, in test [3], the “percent fractional release … Hippocampus” value worked out at 0.73%. The “percent fractional release … Thalamus” value in test [4] was 1.75%. Moreover, the “percent fractional release … Prefrontal Cortex” value in test [5] came to 2.0%. In addition, the change in vivo at 20 mg/kg in the test on rats (setting [6]) stood at 58%; in the test on rats (setting [7]) it was 78%; with rats (setting [10]), 268%; in the test on rats (setting [8]), 202%.
